One test concerns human PBMCs. Briefly: cells. As to conditions: PBMC, 24 h.
For another test, the system named is murine splenocytes. Briefly: cells. Particulars: Mus musculus, Splenocyte, 24 h. On the set-up: species or system mouse splenocytes.
The target of the next test is WT-hSTING-CTT (Homo sapiens, UniProt Q86WV6, H232R). Briefly: surface plasmon resonance. The format is binding. As to conditions: labelled compound; biotin-tagged SB […] used. For orientation: SPR reads the build-up and loss of mass on a sensor chip optically.
The next test relates to mSTING. Briefly: cells. Further details: species or system THP1. As to conditions: Homo sapiens, THP-1, 20 h, read-out: SB 11285 EC50 (µM).
Another test has as its system hSTING-WT. Briefly: cells. Further details: species or system THP1. Particulars: Homo sapiens, THP-1, 20 h, read-out: SB 11285 EC50 (µM).
In a further test the test system is hSTING AQ. Briefly: cells. On the set-up: species or system THP1. As to conditions: Homo sapiens, THP-1, 20 h, read-out: SB 11285 EC50 (µM).

Where two headings read alike, the source gives them in different places. Bounds are passed on as bounds.

Our source for the EC50 and Kd values is doi:10.1101/2025.03.27.645620v1 (biorxiv, 2025).

The term EC50 denotes the concentration at which the effect is half-maximal. As usually defined, the Kd is a measure of binding affinity in units of concentration. Read a high Kd as a looser complex.

Chain of WT-hSTING-CTT (Q86WV6 139-379 H232R): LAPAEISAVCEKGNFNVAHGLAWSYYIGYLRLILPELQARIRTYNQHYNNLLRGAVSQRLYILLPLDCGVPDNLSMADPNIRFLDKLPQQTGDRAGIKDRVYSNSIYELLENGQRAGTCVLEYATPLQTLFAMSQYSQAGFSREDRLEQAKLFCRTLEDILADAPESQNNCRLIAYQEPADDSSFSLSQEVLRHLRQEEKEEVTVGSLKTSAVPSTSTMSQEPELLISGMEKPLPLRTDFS

In the case of `Nc1ncnc2c1ncn2[C@@H]1O[C@@H]2COP(O)(=S)O[C@@H]3[C@H](O)[C@@H](COP(O)(=S)O[C@H]2[C@H]1O)O[C@H]3n1cnc2c(N)ncnc21` (stereo partly shown) [ADU-S100], the EC50 with human PBMCs (read-out: EC50(μM), GM-CSF) was 2.9 ± 0.4 µM; in the test on human PBMCs (read-out: EC50(μM), IFN-α), 2.6 ± 2.9 µM; with human PBMCs (read-out: EC50(μM), IFN-β), over 10 µM; with human PBMCs (read-out: EC50(μM), IL-6) it was 2.3 ± 0.6 µM; in the test with human PBMCs (read-out: EC50(μM), IL-10), 0.8 ± 0.6 µM; in the test on human PBMCs (read-out: EC50(μM), IP-10), 0.4 ± 0.3 µM. Moreover, the EC50 with human PBMCs (read-out: EC50(μM), MIP-1α) was 1.1 ± 0.6 µM; in the test on human PBMCs (read-out: EC50(μM), MIP-1β) it was 1.2 ± 0.8 µM; with human PBMCs (read-out: EC50(μM), RANTES) it was 0.7 ± 0.5 µM; in the test with murine splenocytes (read-out: EC50 (μM), CXCL1), 1.6 ± 0.9 µM; in the test with murine splenocytes (read-out: EC50 (μM), IFN-α), over 10 µM; in the test on murine splenocytes (read-out: EC50 (μM), IL-6), 1.7 ± 1.7 µM. For the same compound, the EC50 in the test with murine splenocytes (read-out: EC50 (μM), IL-17A) turned out to be 0.3 ± 0.2 µM; in the test on murine splenocytes (read-out: EC50 (μM), IL-18), 0.6 ± 0.4 µM; in the test with murine splenocytes (read-out: EC50 (μM), MIP-1α) it was 0.5 ± 0.4 µM; in the test with murine splenocytes (read-out: EC50 (μM), MIP-1β) it was 0.7 ± 0.3 µM; in the test on murine splenocytes (read-out: EC50 (μM), RANTES), 0.1 ± 0.1 µM; with murine splenocytes (read-out: EC50 (μM), TNF-α), 1.4 ± 0.5 µM.

On to biotin-tagged SB 11285, for which the dissociation constant Kd at WT-hSTING-CTT was about 122 nM.

As for `NC1CC2CCC(C1)C2O` (mixture of isomers) [SB 11285], the EC50 in the test on mSTING came to 0.15 µM; in the test with hSTING-WT, 0.008 µM; in the test on hSTING AQ it was 0.43 µM; in the test on human PBMCs (read-out: SB 11285 EC50(μM), GM-CSF), 0.4 ± 0.3 µM; with human PBMCs (read-out: SB 11285 EC50(μM), IFN-α), 0.9 ± 0.7 µM; with human PBMCs (read-out: SB 11285 EC50(μM), IFN-β) it was 0.3 ± 0.2 µM. Also, the half-maximal effective concentration (EC50) came out at 1 ± 0.4 µM with human PBMCs (read-out: SB 11285 EC50(μM), IFN-γ); 0.03 ± 0.03 µM in the test with human PBMCs (read-out: SB 11285 EC50(μM), IL-10); 0.8 ± 0.3 µM with human PBMCs (read-out: SB 11285 EC50(μM), IL-12p70); 0.7 ± 0.1 µM with human PBMCs (read-out: SB 11285 EC50(μM), IL-18); 0.05 ± 0.04 µM in the test with human PBMCs (read-out: SB 11285 EC50(μM), MIP-1α); 0.06 ± 0.09 µM in the test on human PBMCs (read-out: SB 11285 EC50(μM), MIP-1β). The EC50 in the test on human PBMCs (read-out: SB 11285 EC50(μM), RANTES) was determined as 0.08 ± 0.06 µM; with murine splenocytes (read-out: SB 11285 EC50 (μM), IFN-α) it was 0.2 ± 0.1 µM; in the test on murine splenocytes (read-out: SB 11285 EC50 (μM), IL-18) it was 0.02 ± 0.02 µM; in the test on murine splenocytes (read-out: SB 11285 EC50 (μM), IL-31), 0.006 ± 0.003 µM; in the test on murine splenocytes (read-out: SB 11285 EC50 (μM), IP-10) it was 0.03 ± 0.02 µM; with murine splenocytes (read-out: SB 11285 EC50 (μM), TNF-α) it was 0.04 ± 0.06 µM.
